Measurements as given in EP4559911A1, “NOVEL HETEROCYCLIC COMPOUND AND PHARMACEUTICAL COMPOSITION FOR INHIBITING AUTOTAXIN COMPRISING THE SAME” (Nextgen Bioscience Co., Ltd., priority 2022, dated 2024).

target: human Autotaxin protein (Homo sapiens, UniProt Q13822); assay: Evaluation of the inhibitory activity against human Autotaxin protein (18:1 LysoPC substrate, choline assay kit, absorbance at 570 nm); assay type: biochemical; conditions: compound at 500nM; 2 hours at 37 °C; % inhibition = (1 - absorbance test group / absorbance control group) X 100
Description: Solutions of each compound synthesized (80 uM, 100% dimethyl sulfoxide) were sequentially diluted 5-fold with dimethyl sulfoxide to prepare 6 concentrations. Each concentration of the compound was diluted 2-fold with 1x test buffer (50 mM Tris-Cl (pH 8.0), 5 mM KCl, 1 mM CaCl2, 1 mM MgCl2, 140 mM NaCl, deionized water, 1 mg/mL BSA), and 1 uL (1.25% dimethyl sulfoxide) of this diluted mixture was dispensed into each well of a 96-well clear round-bottom plate. 9 uL of 1x test buffer was added, and 20 uL of 240 nM human autotaxin protein (buffer: 50 mM Tris-HCl, pH 8.0, with 150 mM sodium chloride and 20% glycerol) was added. 10 uL of sonicated 360 uM 18:1 LysoPC (diluted with 1x assay buffer) was added. The reaction was performed for 2 hours in a shaking incubator at 37 °C, and a secondary reaction mixture (choline assay kit, KA1662) (65 uL of 1x assay buffer: 1 uL of choline oxidase: 1 uL of dye probe) was prepared. 60 uL of the secondary reaction mixture was added to the plate where the reaction was performed, and incubated for 30 minutes in a shaker. The absorbance value was measured at a wavelength of 570 nm using a SpectraMax iD3 microplate reader. The percentage inhibition activity value (% inhibition) was calculated by the formula: (1 - absorbance value test group / absorbance value control group) X 100.

In order of falling inhibition at 0.5 µM:
1. Brc1ccc2c(c1)CC(Nc1ncc(-c3nnc(N4CC(c5c[nH]nn5)C4)o3)cn1)C2 (stereo not drawn) [Example 64, 5-(5-(3-(1H-1,2,3-triazol-4-yl)azetidin-1-yl)-1,3,4-oxadiazol-2-yl)-N-(5-bromo-2,3-dihydro-1H-inden-2-yl)pyrimidin-2-amine]  100%
2. Fc1ccc2c(c1)CC(Nc1ncc(-c3nnc(N4CC(c5c[nH]nn5)C4)o3)cn1)C2 (stereo not drawn) [Example 65, 5-(5-(3-(1H-1,2,3-triazol-4-yl)azetidin-1-yl)-1,3,4-oxadiazol-2-yl)-N-(5-fluoro-2,3-dihydro-1H-inden-2-yl)pyrimidin-2-amine]  100%
3. CC1(c2c[nH]nn2)CN(C(=O)/C=C/c2cnc(NC3Cc4cc(F)c(F)cc4C3)nc2)C1 [Example 78, (E)-3-(2-((5,6-difluoro-2,3-dihydro-1H-inden-2-yl)amino)pyrimidin-5-yl)-1-(3-methyl-3-(1H-1,2,3-triazol-4-yl)azetidin-1-yl)prop-2-en-1-one]  99.1%
4. CC1(c2c[nH]nn2)CN(C(=O)/C=C/c2cnc(NC3Cc4ccccc4C3)nc2)C1 [Example 82, (E)-3-(2-((2,3-dihydro-1H-inden-2-yl)amino)pyrimidin-5-yl)-1-(3-methyl-3-(1H-1,2,3-triazol-4-yl)azetidin-1-yl)prop-2-en-1-one]  98%
5. COc1ccc2c(c1)CC(Nc1ncc(-c3nnc(N4CC(c5c[nH]nn5)C4)o3)cn1)C2 (stereo not drawn) [Example 71, 5-(5-(3-(1H-1,2,3-triazol-4-yl)azetidin-1-yl)-1,3,4-oxadiazol-2-yl)-N-(5-methoxy-2,3-dihydro-1H-inden-2-yl)pyrimidin-2-amine]  95.5%
6. CC1(c2c[nH]nn2)CN(c2nnc(-c3cnc(NC4Cc5ccccc5C4)nc3)o2)C1 [Example 69, N-(2,3-dihydro-1H-inden-2-yl)-5-(5-(3-methyl-3-(1H-1,2,3-triazol-4-yl)azetidin-1-yl)-1,3,4-oxadiazol-2-yl)pyrimidin-2-amine]  95.4%
7. Fc1cc2c(cc1F)CC(Nc1ncc(-c3nnc(N4CC(F)(c5c[nH]nn5)C4)o3)cn1)C2 [Example 56, N-(5,6-difluoro-2,3-dihydro-1H-inden-2-yl)-5-(5-(3-fluoro-3-(1H-1,2,3-triazol-4-yl)azetidin-1-yl)-1,3,4-oxadiazol-2-yl)pyrimidin-2-amine]  85.2%
8. Cc1[nH]nnc1C1CN(c2nnc(-c3cnc(NC4Cc5cc(F)c(F)cc5C4)nc3)o2)C1 [Example 75, N-(5,6-difluoro-2,3-dihydro-1H-inden-2-yl)-5-(5-(3-(5-methyl-1H-1,2,3-triazol-4-yl)azetidin-1-yl)-1,3,4-oxadiazol-2-yl)pyrimidin-2-amine]  84.6%
9. Cc1nc(NC2Cc3cc(F)c(F)cc3C2)ncc1-c1nnc(N2CC(c3c[nH]nn3)C2)o1 [Example 67, 5-(5-(3-(1H-1,2,3-triazol-4-yl)azetidin-1-yl)-1,3,4-oxadiazol-2-yl)-N-(5,6-difluoro-2,3-dihydro-1H-inden-2-yl)-4-methylpyrimidin-2-amine]  74.7%
10. Fc1cc2c(cc1F)CC(Nc1ncc(-c3nnc(N4CC(c5c[nH]cn5)C4)o3)cn1)C2 [Example 76, 5-(5-(3-(1H-imidazol-4-yl)azetidin-1-yl)-1,3,4-oxadiazol-2-yl)-N-(5,6-difluoro-2,3-dihydro-1H-inden-2-yl)pyrimidin-2-amine]  64%
11. Clc1cc(Cl)cc(CCNc2ncc(-c3nnc(N4CC(c5c[nH]nn5)C4)o3)cn2)c1 [Example 59, 5-(5-(3-(1H-1,2,3-triazol-4-yl)azetidin-1-yl)-1,3,4-oxadiazol-2-yl)-N-(3,5-dichlorophenethyl)pyrimidin-2-amine]  49.5%
12. c1cnc2c(c1)CC(Nc1ncc(-c3nnc(N4CC(c5c[nH]nn5)C4)o3)cn1)C2 (stereo not drawn) [Example 77, N-(5-(5-(3-(1H-1,2,3-triazol-4-yl)azetidin-1-yl)-1,3,4-oxadiazol-2-yl)pyrimidin-2-yl)-6,7-dihydro-5H-cyclopenta[b]pyridin-6-amine]  43.7%
13. O=c1[nH]nc(C2CN(c3nnc(-c4cnc(NC5Cc6cc(F)c(F)cc6C5)nc4)o3)C2)o1 [Example 66, 5-(1-(5-(2-((5,6-difluoro-2,3-dihydro-1H-inden-2-yl)amino)pyrimidin-5-yl)-1,3,4-oxadiazol-2-yl)azetidin-3-yl)-1,3,4-oxadiazol-2(3H)-one]  35.8%
14. Fc1cc2c(cc1F)CC(Nc1ncc(-c3nnc(N4CC(n5cncn5)C4)o3)cn1)C2 [Example 79, 5-(5-(3-(1H-1,2,4-triazol-1-yl)azetidin-1-yl)-1,3,4-oxadiazol-2-yl)-N-(5,6-difluoro-2,3-dihydro-1H-inden-2-yl)pyrimidin-2-amine]  24.7%
15. Fc1cc2c(cc1F)CC(Nc1ncc(-c3nnc(N4CC(c5nnn[nH]5)C4)o3)cn1)C2 [Example 68, 5-(5-(3-(1H-tetrazol-5-yl)azetidin-1-yl)-1,3,4-oxadiazol-2-yl)-N-(5,6-difluoro-2,3-dihydro-1H-inden-2-yl)pyrimidin-2-amine]  17.6%
16. Cc1ncn(C2CN(c3nnc(-c4cnc(NC5Cc6cc(F)c(F)cc6C5)nc4)o3)C2)n1 [Example 80, N-(5,6-difluoro-2,3-dihydro-1H-inden-2-yl)-5-(5-(3-(3-methyl-1H-1,2,4-triazol-1-yl)azetidin-1-yl)-1,3,4-oxadiazol-2-yl)pyrimidin-2-amine]  10.4%
17. COc1ccc2c(c1)CC(Nc1ncc(-c3nnc(N4CC(c5cn(COC(=O)C(C)(C)C)nn5)C4)o3)cn1)C2 (stereo not drawn) [Example 70, (4-(1-(5-(2-((5-methoxy-2,3-dihydro-1H-inden-2-yl)amino)pyrimidin-5-yl)-1,3,4-oxadiazol-2-yl)azetidin-3-yl)-1H-1,2,3-triazol-1-yl)methyl pivalate]  9.6%
18. N#CC1CN(c2nnc(-c3cnc(NC4Cc5cc(F)c(F)cc5C4)nc3)o2)C1 [Example 57, 1-(5-(2-((5,6-difluoro-2,3-dihydro-1H-inden-2-yl)amino)pyrimidin-5-yl)-1,3,4-oxadiazol-2-yl)azetidine-3-carbonitrile]  8.6%
19. c1cnc2c(n1)CC(Nc1ncc(-c3nnc(N4CC(c5c[nH]nn5)C4)o3)cn1)C2 [Example 74, N-(5-(5-(3-(1H-1,2,3-triazol-4-yl)azetidin-1-yl)-1,3,4-oxadiazol-2-yl)pyrimidin-2-yl)-6,7-dihydro-5H-cyclopenta[b]pyrazin-6-amine]  7.1%
20. Fc1cc2c(cc1F)CC(Nc1ncc(-c3nnc(N4CC(N5CCOCC5)C4)o3)cn1)C2 [Example 81, N-(5,6-difluoro-2,3-dihydro-1H-inden-2-yl)-5-(5-(3-morpholinoazetidin-1-yl)-1,3,4-oxadiazol-2-yl)pyrimidin-2-amine]  7%
21. CC(C)(C)C(=O)OCn1cc(C2CN(c3nnc(-c4cnc(NC5Cc6nccnc6C5)nc4)o3)C2)nn1 [Example 72, (4-(1-(5-(2-((6,7-dihydro-5H-cyclopenta[b]pyrazin-6-yl)amino)pyrimidin-5-yl)-1,3,4-oxadiazol-2-yl)azetidin-3-yl)-1H-1,2,3-triazol-1-yl)methyl pivalate]  3.1%
22. CC(C)(C)C(=O)OCn1cc(C2CN(c3nnc(-c4cnc(NC5Cc6cccnc6C5)nc4)o3)C2)nn1 (stereo not drawn) [Example 73, (4-(1-(5-(2-((6,7-dihydro-5H-cyclopenta[b]pyridin-6-yl)amino)pyrimidin-5-yl)-1,3,4-oxadiazol-2-yl)azetidin-3-yl)-1H-1,2,3-triazol-1-yl)methyl pivalate]  1.2%
23. Fc1cc2c(cc1F)CC(Nc1ncc(-c3nnc(N4CC(c5nnc(C(F)(F)F)o5)C4)o3)cn1)C2 [Example 58, N-(5,6-difluoro-2,3-dihydro-1H-inden-2-yl)-5-(5-(3-(5-(trifluoromethyl)-1,3,4-oxadiazol-2-yl)azetidin-1-yl)-1,3,4-oxadiazol-2-yl)pyrimidin-2-amine]  1%
24. Fc1cc2c(cc1F)CC(Nc1cnc(-c3nnc(N4CC(c5c[nH]nn5)C4)o3)cn1)C2 [Example 60, 5-(5-(3-(1H-1,2,3-triazol-4-yl)azetidin-1-yl)-1,3,4-oxadiazol-2-yl)-N-(5,6-difluoro-2,3-dihydro-1H-inden-2-yl)pyrazin-2-amine]  1%
25. Fc1cc2c(cc1F)CC(Nc1ncc(-c3nnc(N4CC(c5nnc(C(F)F)o5)C4)o3)cn1)C2 [Example 61, N-(5,6-difluoro-2,3-dihydro-1H-inden-2-yl)-5-(5-(3-(5-(difluoromethyl)-1,3,4-oxadiazol-2-yl)azetidin-1-yl)-1,3,4-oxadiazol-2-yl)pyrimidin-2-amine]  1%
26. CC(C)(C)C(=O)OCn1cc(C2CN(c3nnc(-c4cnc(NC5Cc6ccc(Br)cc6C5)nc4)o3)C2)nn1 (stereo not drawn) [Example 62, (4-(1-(5-(2-((5-bromo-2,3-dihydro-1H-inden-2-yl)amino)pyrimidin-5-yl)-1,3,4-oxadiazol-2-yl)azetidin-3-yl)-1H-1,2,3-triazol-1-yl)methyl pivalate]  1%
27. CC(C)(C)C(=O)OCn1cc(C2CN(c3nnc(-c4cnc(NC5Cc6ccc(F)cc6C5)nc4)o3)C2)nn1 (stereo not drawn) [Example 63, (4-(1-(5-(2-((5-fluoro-2,3-dihydro-1H-inden-2-yl)amino)pyrimidin-5-yl)-1,3,4-oxadiazol-2-yl)azetidin-3-yl)-1H-1,2,3-triazol-1-yl)methyl pivalate]  1%
